biological target: T1, TNF-α (Homo sapiens, UniProt P01375); assay: TNF-α Induced HEK Blue Cellular Assay (secreted alkaline phosphatase expression, QUANTI-Blue); type: cell-based; details: HEK Blue TNFα reporter cells; TNF-α 100 μg/ml; 24 hrs at 37° C.; inhibition of secreted alkaline phosphatase; read-out: IC50 value
T1 construct: purchased R&D 210-TA-020/CF
How it was run: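 HEK Blue TNFα reporter cells (10,000/well) in DMEM with 10% FBS received compound ([…] to 0.5 nM final) and TNF-α at […] final for 24 h at 37° C. Secreted alkaline phosphatase read with QUANTI-Blue at 620 nm. IC50 came from a 4-parameter logistic fit after normalising to unstimulated and stimulated DMSO controls.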

T1 sequence (P01375 77-233 limits assumed): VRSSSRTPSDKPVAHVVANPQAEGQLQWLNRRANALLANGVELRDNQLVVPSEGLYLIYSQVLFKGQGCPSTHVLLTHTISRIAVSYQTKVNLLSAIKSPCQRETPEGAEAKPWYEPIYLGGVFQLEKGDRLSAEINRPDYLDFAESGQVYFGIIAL

Structure (SMILES) | IC50 [µM]
[2H]C([2H])([2H])N1C(=O)c2cccc(OC(F)F)c2[C@H]2C[C@@H]1c1nc3ccc(C#CC4(C)CN(C(=O)C(C)(C)C#N)C4)cc3n12 [Example 157, 3-(3-(((7R,14R)-1-(difluoromethoxy)-6-(methyl-d3)-5-oxo-5,6,7,14-tetrahydro-7,14-methanobenzo[f]benzo[4,5]imidazo[1,2-a][1,4]diazocin-11-yl)ethynyl)-3-methylazetidin-1-yl)-2,2-dimethyl-3-oxopropanenitrile] | 0.1 to 1
[2H]C([2H])([2H])N1C(=O)c2cccc(OC(F)F)c2[C@H]2C[C@@H]1c1nc3ccc(C#CC4(C)CCN(C(C)=O)CC4)cc3n12 [Example 180, (7R,14R)-11-((1-acetyl-4-methylpiperidin-4-yl)ethynyl)-1-(difluoromethoxy)-6-(methyl-d3)-6,7-dihydro-7,14-methanobenzo[f]benzo[4,5]imidazo[1,2-a][1,4]diazocin-5(14H)-one] | 10 to 30
[2H]C([2H])([2H])N1C(=O)c2cccc(OC(F)F)c2[C@H]2C[C@@H]1c1nc3ccc(C#CC4CCN(C5CC5)C4)cc3n12 (stereo partly drawn) [Example 234, (7R,14R)-11-((1-cyclopropylpyrrolidin-3-yl)ethynyl)-1-(difluoromethoxy)-6-(methyl-d3)-6,7-dihydro-7,14-methanobenzo[f]benzo[4,5]imidazo[1,2-a][1,4]diazocin-5(14H)-one] | < 0.1
[2H]C([2H])([2H])N1C(=O)c2cccc(OC(F)F)c2[C@H]2C[C@@H]1c1nc3ccc(C#CCCN4CC(F)(F)C4)cc3n12 [Example 233, (7R,14R)-11-(4-(3,3-difluoroazetidin-1-yl)but-1-yn-1-yl)-1-(difluoromethoxy)-6-(methyl-d3)-6,7-dihydro-7,14-methanobenzo[f]benzo[4,5]imidazo[1,2-a][1,4]diazocin-5(14H)-one] | < 0.1
[2H]C([2H])([2H])N1C(=O)c2cccc(OC(F)F)c2[C@H]2C[C@@H]1c1nc3ccc(C#CC(N)CC(C)(C)O)cc3n12 (single isomer, unassigned) [Example 216, (7R,14R)-11-((S or R)-3-amino-5-hydroxy-5-methylhex-1-yn-1-yl)-1-(difluoromethoxy)-6-(methyl-d3)-6,7-dihydro-7,14-methanobenzo[f]benzo[4,5]imidazo[1,2-a][1,4]diazocin-5(14H)-one] | 10 to 30
[2H]C([2H])([2H])N1C(=O)c2cccc(OC(F)F)c2[C@H]2C[C@@H]1c1nc3ccc(C#CC4(C)CN(CCO)C4)cc3n12 [Example 164, (7R,14R)-1-(difluoromethoxy)-11-((1-(2-hydroxyethyl)-3-methylazetidin-3-yl)ethynyl)-6-(methyl-d3)-6,7-dihydro-7,14-methanobenzo[f]benzo[4,5]imidazo[1,2-a][1,4]diazocin-5(14H)-one] | 0.1 to 1
[2H]C([2H])([2H])N1C(=O)c2cccc(OC(F)F)c2[C@H]2C[C@@H]1c1nc3ccc(C#CC4CC(N)C4)cc3n12 (stereo partly drawn) [Example 113, (7R,14R)-11-((3-aminocyclobutyl)ethynyl)-1-(difluoromethoxy)-6-(methyl-d3)-6,7-dihydro-7,14-methanobenzo[f]benzo[4,5]imidazo[1,2-a][1,4]diazocin-5(14H)-one] | < 0.1
[2H]C([2H])([2H])N1C(=O)c2cccc(OC(F)F)c2[C@H]2C[C@@H]1c1nc3ccc(C#CCN(C)C)cc3n12 [Example 61, (7R,14R)-1-(difluoromethoxy)-11-(3-(dimethylamino)prop-1-yn-1-yl)-6-(methyl-d3)-6,7-dihydro-7,14-methanobenzo[f]benzo[4,5]imidazo[1,2-a][1,4]diazocin-5(14H)-one] | 0.1 to 1
[2H]C([2H])([2H])N1C(=O)c2cccc(OC(F)F)c2[C@H]2C[C@@H]1c1nc3ccc(C#CCCN4CC(F)C4)cc3n12 [Example 228, (7R,14R)-1-(difluoromethoxy)-11-(4-(3-fluoroazetidin-1-yl)but-1-yn-1-yl)-6-(methyl-d3)-6,7-dihydro-7,14-methanobenzo[f]benzo[4,5]imidazo[1,2-a][1,4]diazocin-5(14H)-one] | < 0.1
[2H]C([2H])([2H])N1C(=O)c2cccc(OC(F)F)c2[C@H]2C[C@@H]1c1nc3ccc(C#Cc4nnc(C)o4)cc3n12 [Example 28, (7R,14R)-1-(difluoromethoxy)-6-(methyl-d3)-11-((5-methyl-1,3,4-oxadiazol-2-yl)ethynyl)-6,7-dihydro-7,14-methanobenzo[f]benzo[4,5]imidazo[1,2-a][1,4]diazocin-5(14H)-one] | < 0.1
[2H]C([2H])([2H])N1C(=O)c2cccc(OC(F)F)c2[C@H]2C[C@@H]1c1nc3ccc(C#CC(O)CC(C)(C)O)cc3n12 (single isomer, unassigned) [Example 221, (7R,14R)-1-(difluoromethoxy)-11-((S or R)-3,5-dihydroxy-5-methylhex-1-yn-1-yl)-6-(methyl-d3)-6,7-dihydro-7,14-methanobenzo[f]benzo[4,5]imidazo[1,2-a][1,4]diazocin-5(14H)-one] | 0.1 to 1
[2H]C([2H])([2H])N1C(=O)c2cccc(OC(F)F)c2[C@H]2C[C@@H]1c1nc3ccc(C#CC4CC4)cc3n12 [Example 85, (7R,14R)-11-(cyclopropylethynyl)-1-(difluoromethoxy)-6-(methyl-d3)-6,7-dihydro-7,14-methanobenzo[f]benzo[4,5]imidazo[1,2-a][1,4]diazocin-5(14H)-one] | < 0.1

From patent US20260365682A1, “MODULATORS OF TNF-ALPHA ACTIVITY” (Forward Therapeutics, Inc., priority 2022, published 2026)
